Columns and labels:
C32 (Melanoma) [1] = assay: combination Emax (second highest fraction inhibited in the dose matrix, 72 h); higher = more inhibition; extreme values may be limits of the assay
Procedure, shortened: (§1)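 Bliss excess equals the observed combination effect minus the expected value EA + EB − EA·EB, where EA and EB are the effects of each agent alone. Combination Emax is the second-highest inhibition within the matrix. Inhibition was scaled from CellTiter-Glo 2.0 luminescence, with 0 set by vehicle wells and 1 by blank wells, after 72 hours of two-drug dosing of cells plated in 1536-well plates.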

A375 (Melanoma) = assay: as above
Procedure, shortened: as §1

C32 (Melanoma) [2] = assay: Bliss excess, mean over the matrix (fraction); higher = more synergy
Procedure, shortened: as §1

[3] = tested on: ATN-1 (T-Lymphoblastic Leukemia); assay: as above
Procedure, shortened: as §1

GCIY (Gastric Carcinoma) = assay: as above
Procedure, shortened: as §1

[4] = tested on: MRK-nu-1 (Breast Carcinoma); assay: as above
Procedure, shortened: as §1

[5] = tested on: COR-L105 (Lung Adenocarcinoma); assay: as above
Procedure, shortened: as §1

[6] = tested on: OCI-M1 (Acute Myeloid Leukemia); assay: as above
Procedure, shortened: as §1

[7] = tested on: NCI-H2009 (Lung Adenocarcinoma); assay: as above
Procedure, shortened: as §1

[8] = tested on: NCI-H2023 (Non-Small Cell Lung Carcinoma); assay: as above
Procedure, shortened: as §1

[9] = tested on: SNU-1 (Gastric Carcinoma); assay: as above
Procedure, shortened: as §1

[10] = tested on: SBC-5 (Small Cell Lung Carcinoma); assay: as above
Procedure, shortened: as §1

[11] = tested on: NCI-H1048 (Small Cell Lung Carcinoma); assay: as above
Procedure, shortened: as §1

DK-MG (Glioblastoma) = assay: as above
Procedure, shortened: as §1

SK-N-DZ (Neuroblastoma) = assay: as above
Procedure, shortened: as §1

NCI-H2452 (Mesothelioma) = assay: as above
Procedure, shortened: as §1

[12] = tested on: NCI-H1435 (Non-Small Cell Lung Carcinoma); assay: as above
Procedure, shortened: as §1

[13] = tested on: CAL-85-1 (Breast Carcinoma); assay: as above
Procedure, shortened: as §1

[14] = tested on: NTERA-2-cl-D1 (Other Solid Carcinomas); assay: as above
Procedure, shortened: as §1

[15] = tested on: NCI-H835 (Other Solid Carcinomas); assay: as above
Procedure, shortened: as §1

| SMILES | combination Emax (C32 (Melanoma) [1]) | combination Emax (A375 (Melanoma)) | Bliss excess (C32 (Melanoma) [2]) | Bliss excess [3] | Bliss excess (GCIY (Gastric Carcinoma)) | Bliss excess [4] | Bliss excess [5] | Bliss excess [6] | Bliss excess [7] | Bliss excess [8] | Bliss excess [9] | Bliss excess [10] | Bliss excess [11] | Bliss excess (DK-MG (Glioblastoma)) | Bliss excess (SK-N-DZ (Neuroblastoma)) | Bliss excess (NCI-H2452 (Mesothelioma)) | Bliss excess [12] | Bliss excess [13] | Bliss excess [14] | Bliss excess [15] |
| --- | --- | --- | --- | --- | --- | --- | --- | --- | --- | --- | --- | --- | --- | --- | --- | --- | --- | --- | --- | --- |
| CN(CCO)CC[C@H](CSc1ccccc1)Nc1ccc(S(=O)(=O)NC(=O)c2ccc(N3CCC([C@@H](O)c4ccccc4-c4ccc(Cl)cc4)CC3)cc2)cc1S(=O)(=O)C(F)(F)F [AZD4320] + Cc1cc2ncnn2cc1Nc1ncc2c(n1)n(C1CCOCC1)c(=O)n2C [AZD7648] (first compound max 1 µM, 7x7, partner max 10 µM) | 0.211 | 0.134 | -0.0275 | 0.0479 | -0.0452 | 0.0501 | -0.0146 | 0.0138 | -0.0437 | -0.0585 | 0.0237 | -0.032 | 0.0256 | -0.0591 | -0.0362 | -0.011 | 0.0137 | -0.0118 | 0.0408 |  |
| Cc1cc2ncnn2cc1Nc1ncc2c(n1)n(C1CCOCC1)c(=O)n2C [AZD7648] + COc1cc([C@@H]2c3cc4c(cc3[C@@H](O[C@@H]3O[C@@H]5CO[C@@H](C)O[C@H]5[C@H](O)[C@H]3O)[C@H]3COC(=O)[C@H]23)OCO4)cc(OC)c1O [Etoposide] (first compound max 10 µM, 7x7, partner max 10 µM) | 0.526 | 0.901 | 0.0402 |  | 0.125 | 0.0829 | 0.0299 |  | 0.116 | 0.0401 |  |  |  |  |  | 0.0449 | 0.0043 | 0.0483 | 0.137 | 0.024 |
| CN(CCO)CC[C@H](CSc1ccccc1)Nc1ccc(S(=O)(=O)NC(=O)c2ccc(N3CCC([C@@H](O)c4ccccc4-c4ccc(Cl)cc4)CC3)cc2)cc1S(=O)(=O)C(F)(F)F [AZD4320] + C[C@@H]1COCCN1C2=NC(=NC(=C2)C3(CC3)[S@](=N)(=O)C)C4=C5C=CNC5=NC=C4 [AZD6738] (first compound max 1 µM, 7x7, partner max 10 µM) | 0.787 | 0.789 | 0.0653 | 0.0273 | 0.0264 | 0.0039 | -0.0711 | 0.0051 | -0.0099 | -0.0255 | -0.0343 | -0.0511 | 0.0634 | -0.0439 | -0.0559 | -0.0246 | 0.0366 | -0.0048 | -0.0301 |  |
| CN(CCO)CC[C@H](CSc1ccccc1)Nc1ccc(S(=O)(=O)NC(=O)c2ccc(N3CCC([C@@H](O)c4ccccc4-c4ccc(Cl)cc4)CC3)cc2)cc1S(=O)(=O)C(F)(F)F [AZD4320] + CCN(CCO)CCCOc1ccc2c(Nc3cc(CC(=O)Nc4cccc(F)c4)[nH]n3)ncnc2c1 [AZD2811] (first compound max 1 µM, 7x7, partner max 1 µM) | 0.643 | 0.506 | 0.114 | 0.0082 | -0.0067 | 0.0505 | -0.0523 | 0.0074 | -0.0461 | -0.0636 | 0.0461 | -0.0075 | 0.139 | -0.0213 | 0.0087 | -0.0111 | 0.004 | 0.0218 | 0.159 |  |
| CN(CCO)CC[C@H](CSc1ccccc1)Nc1ccc(S(=O)(=O)NC(=O)c2ccc(N3CCC([C@@H](O)c4ccccc4-c4ccc(Cl)cc4)CC3)cc2)cc1S(=O)(=O)C(F)(F)F [AZD4320] + CC(=O)O[C@H]1C(=O)[C@@]2(C)[C@H]([C@H](OC(=O)c3ccccc3)[C@]3(O)C[C@H](OC(=O)[C@H](O)[C@@H](NC(=O)c4ccccc4)c4ccccc4)C(C)=C1C3(C)C)[C@]1(OC(C)=O)CO[C@@H]1C[C@@H]2O [Paclitaxel] (first compound max 1 µM, 7x7, partner max 3 µM) | 0.864 | 0.992 | 0.107 |  | 0.131 | 0.0162 | 0.0195 |  | 0.0889 | 0.0458 |  |  |  |  |  | 0.117 | 0.167 | 0.0773 | 0.0025 | 0.199 |
| CN(CCO)CC[C@H](CSc1ccccc1)Nc1ccc(S(=O)(=O)NC(=O)c2ccc(N3CCC([C@@H](O)c4ccccc4-c4ccc(Cl)cc4)CC3)cc2)cc1S(=O)(=O)C(F)(F)F [AZD4320] + Nc1ccn([C@@H]2O[C@H](CO)[C@@H](O)C2(F)F)c(=O)n1 [Gemcitabine] (first compound max 1 µM, 7x7, partner max 0.3 µM) | 0.805 | 0.996 | 0.0027 |  | -0.0151 | 0.0117 | -0.0111 |  | -0.013 | 0.0338 |  |  |  |  |  | -0.0035 | -0.0344 | -0.0055 | -0.0239 | 0.0682 |
| N#Cc1cnc(Nc2cc(NC[C@H]3CNCCO3)c(C(F)(F)F)cn2)cn1 [SRA737] + C=CCn1c(=O)c2cnc(Nc3ccc(N4CCN(C)CC4)cc3)nc2n1-c1cccc(C(C)(C)O)n1 [AZD1775] (first compound max 10 µM, partner max 1 µM) | 0.581 | 0.615 | 0.0397 |  | 0.033 | 0.0988 | 0.031 |  | -0.011 | 0.0404 |  |  |  |  |  | -0.0018 | 0.0093 | -0.0283 | 0.0209 | 0.01 |
| C[C@@H](c1ccc2nccn2c1)n1nnc2ncc(-c3cnn(C)c3)nc21 [Savolitinib] + CN(CC[C@H](CSC1=CC=CC=C1)NC2=C(C=C(C=C2)S(=O)(=O)NC(=O)C3=CC=C(C=C3)N4CCC(CC4)[C@H](C5=CC=CC=C5C6=CC=C(C=C6)Cl)O)S(=O)(=O)C(F)(F)F)CCO [AZD4320] (first compound max 1 µM, 7x7, partner max 1 µM) | 0.377 | 0.202 | -0.0103 | 0.0235 |  |  |  | -0.0212 |  |  | -0.0597 | -0.0003 | 0.0144 | -0.0585 | -0.0035 |  |  |  |  |  |
